Source: patent US12077503B2, “Substituted cyclic amides and their use as herbicides” (FMC CORPORATION, priority 2015, dated 2024)

Assays:
Format in all cases: in vivo
Kochia (Kochia scoparia) [1] = assay: Test A preemergence; settings: Bassia scoparia, pre-emergence, 240 h, read-out: Plant response rating, Kochia
Outline: (§1)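 Treatment is preemergence as a directed soil spray after planting, or postemergence at the one- to two-leaf stage, with test chemical in a non-phytotoxic solvent mixture plus surfactant. Plants stay in the greenhouse about 10 d before visual injury scoring on a 0 to 100 scale versus untreated controls.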

[2] = system: barnyardgrass (Echinochloa crus-galli); assay: Test A preemergence; settings: Echinochloa crus-galli, pre-emergence, 240 h, read-out: Plant response rating, Barnyardgrass
Outline: as §1

[3] = system: giant foxtail (Setaria faberii); assay: Test A preemergence; settings: Setaria faberi, pre-emergence, 240 h, read-out: Plant response rating, Foxtail, Giant
Outline: as §1

[4] = system: pigweed (Amaranthus retroflexus); assay: Test A preemergence; settings: Amaranthus retroflexus, pre-emergence, 240 h, read-out: Plant response rating, Pigweed
[5] = system: ragweed (common ragweed, Ambrosia elatior); assay: Test A preemergence; settings: Ambrosia artemisiifolia, pre-emergence, 240 h, read-out: Plant response rating, Ragweed
Outline: as §1

[6] = system: ryegrass, Italian (Italian ryegrass, Lolium multiflorum); assay: Test A preemergence; settings: Lolium multiflorum, pre-emergence, 240 h, read-out: Plant response rating, Ryegrass, Italian
Outline: as §1

[7] = system: Galium (catchweed bedstraw, Galium aparine); assay: Test A postemergence; settings: Galium, post-emergence, 240 h
Outline: as §1

Kochia (Kochia scoparia) [8] = assay: Test A postemergence; settings: Bassia scoparia, post-emergence, 240 h
Outline: as §1

[9] = system: barnyardgrass (Echinochloa crus-galli); assay: Test A postemergence; settings: Echinochloa crus-galli, post-emergence, 240 h
Outline: as §1

corn (Zea mays) = assay: Test A postemergence; settings: Zea mays, post-emergence, 240 h
Outline: as §1

[10] = system: giant foxtail (Setaria faberii); assay: Test A postemergence; settings: Setaria faberi, post-emergence, 240 h
Outline: as §1

[11] = system: pigweed (Amaranthus retroflexus); assay: Test A postemergence; settings: Amaranthus retroflexus, post-emergence, 240 h
Outline: as §1

[12] = system: ragweed (common ragweed, Ambrosia elatior); assay: Test A postemergence; settings: Ambrosia artemisiifolia, post-emergence, 240 h
Outline: as §1

[13] = system: ryegrass, Italian (Italian ryegrass, Lolium multiflorum); assay: Test A postemergence; settings: Lolium multiflorum, post-emergence, 240 h
Outline: as §1

[14] = system: wheat (Triticum aestivum); assay: Test A postemergence; settings: Triticum aestivum, post-emergence, 240 h
Outline: as §1

[15] = 125 g ai/ha, preemergence, visual rating after approx. 10 d, 0 to 100 scale where 0 is no effect and 100 is complete control
[16] = Preemergence, 31 g ai/ha, 0 to 100 scale (0 no effect, 100 complete control)

Work on `CN1CC[C@H](c2cccc(OC(F)(F)F)c2)[C@@H](C(=O)Nc2cccc(Cl)c2F)C1=O` [Compound 810] yielded a pest or weed control at 125 g/ha (Kochia (Kochia scoparia) [1]; [15]) of 0%, a pest or weed control at 31 g/ha (Kochia (Kochia scoparia) [1]; [16]) of 0% and a pest or weed control at 125 g/ha [2, 15] of 90%. It also gave a pest or weed control at 31 g/ha [2, 16] of 90%, a pest or weed control at 125 g/ha [3, 15] of 90% and a pest or weed control at 31 g/ha [3, 16] of 70%. For the same compound, the pest or weed control at 125 g/ha [4, 15] was 0%, the pest or weed control at 31 g/ha [4, 16] was 0% and the pest or weed control at 125 g/ha [5, 15] was 0%. The pest or weed control at 31 g/ha [5, 16] was 0%, the pest or weed control at 125 g/ha [6, 15] was 20% and the pest or weed control at 31 g/ha [6, 16] was 0%. It also gave a pest or weed control at 125 g/ha ([7]; 125 g ai/ha, postemergence, visual injury rating after approximately 10 d, read-out: Galium plant response rating (0 to 100 scale, 0 no effect, 100 complete control)) of 0%, a pest or weed control at 31 g/ha ([7]; Postemergence, 31 g ai/ha, visual injury after approx. 10 d, 0 to 100 scale, 0 no effect, 100 complete control, read-out: Plant response rating, Galium) of 0% and a pest or weed control at 125 g/ha (Kochia (Kochia scoparia) [8]; 125 g ai/ha, postemergence, visual injury rating after approximately 10 d, read-out: Kochia plant response rating (0 to 100 scale, 0 no effect, 100 complete control)) of 0%. The pest or weed control at 31 g/ha (Kochia (Kochia scoparia) [8]; Postemergence, 31 g ai/ha, visual injury after approx. 10 d, 0 to 100 scale, 0 no effect, 100 complete control, read-out: Plant response rating, Kochia) was 0%, the pest or weed control at 125 g/ha ([9]; 125 g ai/ha, postemergence, visual injury rating after approximately 10 d, read-out: Barnyardgrass plant response rating (0 to 100 scale, 0 no effect, 100 complete control)) was 70% and the pest or weed control at 31 g/ha ([9]; Postemergence, 31 g ai/ha, visual injury after approx. 10 d, 0 to 100 scale, 0 no effect, 100 complete control, read-out: Plant response rating, Barnyardgrass) was 40%. It also gave a plant injury at 125 g/ha (corn (Zea mays); 125 g ai/ha, postemergence, visual injury rating after approximately 10 d, read-out: Corn plant response rating (0 to 100 scale, 0 no effect, 100 complete control)) of 0%, a Corn plant response rating (crop injury, 0 = no effect, 100 = complete kill) at 31 g/ha (corn (Zea mays); Postemergence, 31 g ai/ha, visual injury after approx. 10 d, 0 to 100 scale, 0 no effect, 100 complete control) of 0% and a pest or weed control at 125 g/ha ([10]; 125 g ai/ha, postemergence, visual injury rating after approximately 10 d, read-out: Foxtail, Giant plant response rating (0 to 100 scale, 0 no effect, 100 complete control)) of 80%. For the same compound, the pest or weed control at 31 g/ha ([10]; Postemergence, 31 g ai/ha, visual injury after approx. 10 d, 0 to 100 scale, 0 no effect, 100 complete control, read-out: Plant response rating, Foxtail, Giant) was 60%, the pest or weed control at 125 g/ha ([11]; 125 g ai/ha, postemergence, visual injury rating after approximately 10 d, read-out: Pigweed plant response rating (0 to 100 scale, 0 no effect, 100 complete control)) was 0% and the pest or weed control at 31 g/ha ([11]; Postemergence, 31 g ai/ha, visual injury after approx. 10 d, 0 to 100 scale, 0 no effect, 100 complete control, read-out: Plant response rating, Pigweed) was 0%. For the same compound, the pest or weed control at 125 g/ha ([12]; 125 g ai/ha, postemergence, visual injury rating after approximately 10 d, read-out: Ragweed plant response rating (0 to 100 scale, 0 no effect, 100 complete control)) was 0%, the pest or weed control at 31 g/ha ([12]; Postemergence, 31 g ai/ha, visual injury after approx. 10 d, 0 to 100 scale, 0 no effect, 100 complete control, read-out: Plant response rating, Ragweed) was 0% and the pest or weed control at 125 g/ha ([13]; 125 g ai/ha, postemergence, visual injury rating after approximately 10 d, read-out: Ryegrass, Italian plant response rating (0 to 100 scale, 0 no effect, 100 complete control)) was 0%. For the same compound, the pest or weed control at 31 g/ha ([13]; Postemergence, 31 g ai/ha, visual injury after approx. 10 d, 0 to 100 scale, 0 no effect, 100 complete control, read-out: Plant response rating, Ryegrass, Italian) was 0%, the plant injury at 125 g/ha ([14]; 125 g ai/ha, postemergence, visual injury rating after approximately 10 d, read-out: Wheat plant response rating (0 to 100 scale, 0 no effect, 100 complete control)) was 0% and the plant injury at 31 g/ha ([14]; Postemergence, 31 g ai/ha, visual injury after approx. 10 d, 0 to 100 scale, 0 no effect, 100 complete control, read-out: Plant response rating, Wheat) was 0%.
